Results on six compounds are retold here after patent publication US7648966B2, “Mannose-6-phosphonate compounds for the treatment of inflammatory diseases” (Pharmaxis Pty Limited, priority 2003, dated 2010).

For assay [1], the system named is MBP-specific T lymphocyte cell lines migrating across rat brain endothelial cell monolayer. Description: Inhibition of T-lymphocyte migration across rat brain endothelial cell layer (Transwell, 51Cr-labeled cells). Particulars: 6 hours. Format: cell-based, Lewis rats. How it is done: Preparation of Brain Endothelial Cells (ECs)
Vascular ECs were isolated from rat brain capillaries of 6 to 8 week old Lewis rats according to the method of Risau, W et al., 1990, J. Cell Biol. 110:1757-1766 (which is incorporated herein by reference). Colonies of ECs were purified from astroglial cells and pericytes using anti-Thy1.1-antibody and complement-mediated lysis to remove unwanted Thy1.1+ cells.
The EC colonies were grown, using conventional methods, in Dulbecco's Modified Eagle's Medium (DMEM)-high glucose, supplemented, with 20% fetal calf serum (FCS), glutamine, pyruvate, nonessential amino acids, HEPES buffer and antibiotics (kanamycin, amphotericin), and heparin (all from GIBCO). Cultures were supplemented with 150 μg/ml “endothelial growth supplement” from Collaborative Biomedical Products. Upon reaching confluence, EC cultures were washed with 0.2% EDTA in phosphate buffered saline (PBS), trypsinized (Trypsin-EDTA, 0.1% final concentration), washed and re-treated with anti-Thy1.1 antibody for 40 min, washed and incubated with complement sufficient to lyse all Thy1.1+ cells (Behringwerke, AG, Marburg, Germany) at room temperature.
ECs were then plated on Matrigel®-coated 6.5 mm Transwells, […] (Corning Costar Corporation, Cambridge, Mass.). Presence of ECs and confluence of the monolayer were checked by measuring the electrical resistance (World Precision Instruments, New Haven, U.S.A., model EVOM-G) and by staining with FITC-labeled phalloidin (Sigma).
Myelin Basic Protein (MBP)-Specific T Cell Lines
To study the effect of agents of the present invention on T lymphocyte migration, MBP-specific T lymphocyte cell lines were generated according to the method of Ben-Nun et al., Europ. J. Immunol. 11:195-199 (1981); incorporated herein by reference) starting with lymphocytes from the LNs of Lewis rats that had been immunized with MBP in complete Freund's adjuvant (CFA). These cells were used for migration studies during the first 4 days of their propagation in IL-2-containing medium, following MBP restimulation in the presence of antigen-presenting cells (irradiated spleen or thymus cells from normal Lewis rats).
These stimulated T lymphocytes were radiolabeled with ^51Cr (Na^51Cr04, 37 MBq/ml, Amersham, UK) for 30 minutes at 37° C. with occasional agitation, they were then washed three times with DMEM and placed into the upper chamber of the Transwells at 5×10^5 cells in 100 μl of “migration medium.” Test and control substance were included in the upper wells at final concentrations of 0.1, 1 and 10 mM. Cell migration was assessed visually by light microscopy to gauge progress of the experiment. The experiment was terminated after 6 hours, whereupon the undersurface of the membrane filters were rinsed twice with 100 μl of ice-cold PBS-0.2% EDTA and combined with the medium of the lower chamber of the well. The combined material was counted for radioactivity in a gamma counter (Packard Auto-Gamma 5650 (Downer's Grove Ill., USA) gamma counter. Each “treatment” group was run in triplicate (test agent, control agent (glucose 6-phosphate) and no treatment).
Inhibition values are in comparison with the negative control.

In assay [2] the test system is 51Cr-labeled T lymphocyte migration into the spleen. Description: Inhibition of lymphocyte migration into lymphoid tissue (spleen) in vivo. Particulars: 5 mg per mouse iv with labeled cells; spleens removed 1.5 hours after injection; vs negative controls. Set-up: species or system Balb/c mice. How it is done:
Lymphocytes were obtained from spleens of 6-8 week old female specific pathogen-free Balb/c mice (19-21 g). Single cell suspensions prepared by conventional means (pushing through a stainless steel screen). Red blood cells were lysed by treating with a solution of bicarbonate buffered ammonium chloride-EDTA (pH 7.3) and the preparation strained through a Falcon 2350 cell strainer. All cell preparative steps were performed on ice. Cell were suspended in a conventional lymphocyte culture medium (DMEM plus glucose, folic acid, L-asparagine, sodium bicarbonate, L-glutamine, sodium pyruvate, HEPES, 2-mercaptoethanol, penicillin, streptomycin, neomycin, and 2% FCS).
B lymphocytes were depleted by suspending the cells in purified rat anti-mouse CD45/B220 antibody (RA3-6B2 clone; PharMingen, USA) at a concentration of 4×10^7 cells/ml and incubated on ice for 20 minutes. An equal volume of culture medium (as above) was added and the cells centrifuged (200×g) and resuspended at a concentration of 10^7 cells/ml in BioMag goat ant-rat IgG (H&L) (“GARIG”) conjugated to magnetic beads (Bio Mag; Perseptive Diagnostics, Polysciences, Inc., USA). Following a 20 minute incubation on ice, with agitation every 5 minutes, cells binding to the GARIG/anti-CD45/B220 antibody complex were removed using magnetic separation (Dynal MPC-6, Dynal, USA). This procedure was repeated 4 times, resulting in a cell population containing approximately 80-90% T lymphocytes (determined by FACS analysis).
The cells were then washed in Hanks balanced salt solution (HBSS), resuspended in 5 ml of HBSS, and radiolabeled with ^51Cr for 30 minutes at 37° C. (as described above). The labeled cells were washed in PBS, centrifuged (200×g), and a portion were resuspended at a concentration of 3×10^7 cells/ml in either PBS (negative control) or PBS containing phenyl mannoside 6-phosphate (25 mg/ml in PBS; positive control) or PBS containing the test compound (25 mg/ml), and stored on ice. Cell viability was confirmed throughout the procedures by trypan blue exclusion. Balb/c mice were injected intravenously (iv) into the lateral tail vein with 0.2 ml containing 6×10^6 labeled lymphocytes and 0.2 ml of either PBS (negative control), 5 mg positive control or 5 mg test compound. All groups of mice were weight matched (±0.5 g).
Spleens from recipient mice were removed 1.5 hours after injection, and the cell-associated radioactivity was determined using a gamma counter (as above). Results of inhibition of lymphocyte migration into the spleen were expressed as a percentage reduction in the CPM of the spleens from treated animals compared with negative controls.
The phosphono-mannoside compounds of the present invention and their relative inhibition of lymphocyte migration in vivo (compared to negative controls) are presented in Table 2.

The nature of assay [3]: Tested for pharmaceutical effectiveness (test not specified). How it is done: In a similar manner to the foregoing procedure and using the appropriate reagents, the following compounds were prepared.
Where [4] appears, read: 10 mM in upper well, compared with negative control.

As to “1-(2,4,6-trimethylphenyl)-6-phosphono-manoside”, the “% inhibition (±SEM) of T cell migration” value in assay [1] (setting [4]) worked out at 80 ± 4%. The “% Inhibition of lymphocyte migration into spleens” value in assay [2] is given as 85.5%.

In the case of “1-(2-methyl,4-trifluoromethyl)-6-phosphonomannoside”, the “% inhibition (±SEM) of T cell migration” value in assay [1] (setting [4]) stood at 88 ± 3%. Further, in assay [3], the “pharmaceutical effectiveness as defined herein” value is recorded as “pharmaceutically effective”. In assay [2], the “% Inhibition of lymphocyte migration into spleens” value is reported as 87.3%.

For the compound `O=P(O)(O)OC[C@H]1OC(Oc2ccccc2)[C@@H](O)[C@@H](O)[C@@H]1O` (stereo partly drawn) [positive control compound, phenyl mannoside 6-phosphate, reference compound], in assay [2], the “% Inhibition of lymphocyte migration into spleens” value turned out to be 70.5%.

Regarding “1-(2-methyl,4-chlorophenyl)-6-phosphono-mannoside”, the “% inhibition (±SEM) of T cell migration” value in assay [1] (setting [4]) came out at 65 ± 4%. Further, the “% Inhibition of lymphocyte migration into spleens” value in assay [2] was 45.0%.

Take “1-(2-methyl,4-fluorophenyl)-6-phosphonomannoside”: in assay [1] (setting [4]), the “% inhibition (±SEM) of T cell migration” value came to 53 ± 2%. Also, in assay [2], the “% Inhibition of lymphocyte migration into spleens” value came to 68.0%.

`O=C[C@H](O)[C@@H](O)[C@H](O)[C@H](O)COP(=O)(O)O` [glucose-6-phosphate, reference compound]: the inhibition at 10000 µM in assay [1] (Rattus norvegicus, T-cell, 10 mM in upper well, compared with negative control, read-out: % inhibition (±SEM) of T cell migration) was determined as 0%. Further, the “migration value compared with no treatment” value in assay [1] (control agent) is “not statistically different from no treatment”.
